Earlier results on 1 compound are cited in patent US20240000694A1, “Methods and Materials for Matching Chemistry of Individuals and Human Melanin” (Northwestern University, priority 2022, published 2024).

Take `N[C@@H](CSSC[C@H](N)C(=O)O)C(=O)O` [cystine]: the “pKa of —COOH” value was 1.91.
